We go through one substance from patent US9006194B2, “Compositions and methods for diminishing viral infection and inflammation associated with viral infection” (Drexel University, priority 2008, dated 2015).

The experiment concerns CD4+ and CD8+ T cells. As to the kind of experiment: Apoptosis assay of primary human CD4+ and CD8+ T lymphocytes exposed to Type 1 interferon (CD95/Fas-induced, Annexin V). Conditions: 5 ng/mL for 72 hours, resting or anti-CD3 activated T cells, n=5 healthy donors.

Experimental: T cells were activated with anti-CD3 antibody. n=5 healthy donors for each group.
Primary human PBMC were isolated were isolated by density centrifugation using Ficoll from heparinized venous blood of HIV-1-seronegative adult donors and seeded into 24-well plates at a concentration of 1×10^6 cells/mL/well. Freshly isolated PBMC were treated with 5 ng/mL recombinant IFN-α (PBL Interferon Source; Piscataway, N.J.) in the presence or absence of monoclonal anti-CD3 antibody (OKT3). Anti-CD3 was immobilized by coating plates with 0.1 μg/mL in PBS for 2 hours. Following a 3 day incubation period, PBMC were harvested and transferred to 24-well plates that were uncoated or coated with 5 μg/mL monoclonal anti-CD95 antibody (IgM, CH11; Immunotech, Brea, Calif.) for 14 hour at 37° C. in 5% CO2. Cells were subsequently harvested, counted and stained for flow cytometry analysis. The following combinations of mAb were used to identify CD4+ and CD8+ T cell subpopulations: anti-CD3-PE/anti-CD4-APC/anti-CD8-PerCP; and for the apoptosis studies: Annexin V-Cy5.5 (eBioscience, San Diego, Calif.). One million cells were stained as previously described (Mueller Y M et al., 2001, Immunity. 15:871-882) with the combination of antibodies in HBSS (Cellgro, Herndon, Va.), 3% FBS, 0.02% NaN3 for 15 min on ice, washed twice with HBSS, 3% FBS, 0.02% NaN3 and fixed with 1% paraformaldehyde. […]

Regarding IFN-α, the “CD95/Fas-induced apoptosis of T cells (in words)” value is on record as “increase”.
